Test results taken from publication PMC3557747 (Bioorganic & medicinal chemistry letters, 2012).
Read-outs that look alike come from different tables or passages of the source.

Columns and labels:
[1] = test system: human IMPDH1; settings: read-out: IC50 human IMPDH1; cited from earlier work
[2] = 50 μM; cited from earlier work
[3] = test system: human IMPDH2; settings: read-out: IC50 human IMPDH2; cited from earlier work
[4] = biological target: T1, CpIMPDH (Cryptosporidium parvum, UniProt Q8T6T2); settings: with respect to NAD+, cited from earlier work
T1 sequence (Q8T6T2 1-400): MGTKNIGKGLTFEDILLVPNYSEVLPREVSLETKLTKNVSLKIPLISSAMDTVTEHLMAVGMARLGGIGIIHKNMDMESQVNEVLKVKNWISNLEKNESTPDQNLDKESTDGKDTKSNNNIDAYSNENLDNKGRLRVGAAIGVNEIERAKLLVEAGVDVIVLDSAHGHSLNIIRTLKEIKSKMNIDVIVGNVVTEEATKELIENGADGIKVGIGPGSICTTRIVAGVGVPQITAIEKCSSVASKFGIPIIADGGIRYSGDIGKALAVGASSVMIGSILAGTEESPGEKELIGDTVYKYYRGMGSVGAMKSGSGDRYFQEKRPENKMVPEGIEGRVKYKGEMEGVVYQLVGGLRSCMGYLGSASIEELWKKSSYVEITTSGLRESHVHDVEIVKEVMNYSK

[5] = test system: T. gondii/CpIMPDH; experiment: Antiparasitic activity in Toxoplasma gondii model of C. parvum infection; settings: cultured in hTERT-immortalized human foreskin fibroblasts
[6] = test system: C. parvum; experiment: IL12 knockout mouse model of C. parvum infection; format: in vivo; settings: 250 mg/kg oral once per day for seven days
[7] = biological target: T1, CpIMPDH; experiment: Mechanism of CpIMPDH inhibition with respect to NAD+; format: biochemical

## COc1ccc(NC(=O)Cc2nn(C)c(=O)c3ccccc23)cc1 [Compound 1]
[1]
  IC50: > 50 µM
[2]
  antiparasitic activity: did not display antiparasitic activity
[3]
  IC50: > 50 µM
[4]; read-out: Kis
  Ki: 1.8 µM
[4]
  mode of inhibition: mixed inhibitor

## Cn1nc(CC(=O)Nc2ccc(Br)c(C(F)(F)F)c2)c2ccccc2c1=O [Compound 26]
[5]
  EC50 Toxo/CpIMPDH: sub-micromolar activity

## Cn1nc(CC(=O)Nc2ccc(Cl)c(C(F)(F)F)c2)c2ccccc2c1=O [Compound 27]
[6]
  antiparasitic activity in vivo: no antiparasitic activity was observed
[7]
  mode of inhibition: pure noncompetitive inhibitor
[5]
  EC50 Toxo/CpIMPDH: sub-micromolar activity

## Cn1nc(CC(=O)Nc2ccc3oc4c(c3c2)CCCC4)c2ccccc2c1=O [Compound 53]
[5]
  EC50 Toxo/CpIMPDH: sub-micromolar activity

## Cn1nc(CC(=O)Nc2ccc3oc4ccccc4c3c2)c2ccccc2c1=O [Compound 54]
[5]
  EC50 Toxo/CpIMPDH: sub-micromolar activity
